What was measured:
MYC expression = experiment: Western blotting of MYC in BRAF V600E cancer cell lines; format: cell-based, human; details: four cancer cell lines harboring BRAF V600E; 0.5 uM PLX4032, 24 hours
Procedure: FIG. 3A-3C. MYC regulated TERT expression in a TERT promoter mutation-independent manner. (FIG. 3A) The four indicated cancer cell lines harboring BRAF V600E mutation were treated with 0.5 uM PLX4032 and/or 10 nM MYC-specific siRNA (siMYC) for 24 hours, which were then subjected to Western blotting (upper panel) and qRT-PCR (lower panel). The relative TERT mRNA expression was normalized to the control group. (FIG. 3B, 3C) Parental and BRAF V600E knock-in SW48 cells were treated with control siRNA (siControl) or MYC-specific siRNA (siMYC, 10 nM) for 48 h, followed by Western blotting (FIG. 3B) and luciferase reporter assays (FIG. 3C). *P<0.05, **P<0.01, ***P<0.001, by 2-tailed Student's t test. n.s., not significant. All the values represent the average standard deviation (SD) of triplicate samples from a typical experiment. Similar results were obtained in two additional independent experiments.
(§1) Cells were lysed in the RIPA buffer (#sc-24948; Santa Cruz Biotechnology, Santa Cruz, CA) with protease inhibitor cocktail (#P8340; Sigma-Aldrich) and phosphatase inhibitor cocktail (#P0044; Sigma-Aldrich) and Western blotting analysis was performed as we previously described^54. […] Signals were detected by SuperSignal™ West Pico PLUS Chemiluminescent Substrate (#34579; Thermo Fisher Scientific). […]

FOS phosphorylation = experiment: Western blotting of phosphorylated FOS in K1 and A375 cells; format: cell-based, human; details: 0.5 uM PLX4032 for 0, 1 and 24 hours
Procedure: FIG. 6A-6J. BRAF V600E promoted FOS binding to GABPB by upregulating FOS phosphorylation. (FIG. 6A) Western blotting analyses for phosphorylated-FOS (p-FOS), total FOS (t-FOS), BRAF, and beta-actin in K1 and A375 cells with or without stable BRAF knockdown. (FIG. 6B) Western blotting analyses of p-FOS, t-FOS, p-ERK, and beta-actin in K1 and A375 cells treated with 0.5 uM PLX4032 for 0, 1, and 24 hours. (FIG. 6C-6E) Effects of FOS phosphorylation on GABPB and TERT activation. (FIG. 6C) KAT18 cells were serum-starved for 24 hours and transiently transfected with FOS wild-type (FOS-wt) or mutant (FOS-mut) bearing none of the potential ERK-targeted phosphorylation sites, followed by Western blotting analysis for TERT, GABPB, p-FOS, t-FOS, and beta-actin. (FIG. 6D) KAT18 cells were transfected with FOS-wt or FOS-mut along with GABPB 5′-UTR luciferase reporter and Renilla luciferase (pRL-TK) plasmids in the absence of serum for 24 hours, and the luciferase activities were then measured. […]
as §1

[1] = test system: MEK and ERK phosphorylation; details: wild-type BRAF cells; previous finding (refs 28, 29); cited from earlier work

CCCS(=O)(=O)Nc1ccc(F)c(C(=O)c2c[nH]c3ncc(-c4ccc(Cl)cc4)cc23)c1F [PLX4032]
MYC expression (MYC expression): suppressed MYC expression | phosphorylation of FOS (FOS phosphorylation): significantly decreased the phosphorylation of FOS | MEK and ERK phosphorylation [1]: induced MEK and ERK phosphorylation
